Organism: Rattus norvegicus
Assay: Open TG-GATES - Regimen: Single
Type: toxicity, organism-based, Sprague-Dawley
Set-up: regimen Single, gender Male, age 6 weeks
Settings: in vivo, po, 10 mg/kg, route gavage, dose level Low; for APTT / Bas / Eos / Fbg / Hb / Ht / Lym / MCH / MCHC / MCV / Mono / Neu / PT / Plat / RBC / Ret / WBC: tissue Blood; for KIDNEY_L / KIDNEY_R / KIDNEY_TOTAL: tissue Kidney; for LIVER: tissue Liver; for ALP / ALT / AST / BUN / CRE / Ca / Cl / DBIL / GLC / IP / K / LDH / Na / PL / RALB / TBIL / TC / TG / TP / gamma-GTP: tissue Plasma

COc1cc([C@@H]2c3cc4c(cc3[C@@H](O[C@@H]3O[C@@H]5CO[C@@H](C)O[C@H]5[C@H](O)[C@H]3O)[C@H]3COC(=O)[C@H]23)OCO4)cc(OC)c1O [ETOPOSIDE]
TERMINAL_BW (3 h): 200.9 g
APTT (3 h): 16.9 s
Bas (3 h): 0%
Eos (3 h): 1.2%
Fbg (3 h): 201 mg/dL
Hb (3 h): 13.4 g/dL
Ht (3 h): 39.9%
Lym (3 h): 76.4%
MCH (3 h): 22.1 pg
MCHC (3 h): 33.7%
MCV (3 h): 65.7 fL
Mono (3 h): 8%
Neu (3 h): 14.8%
PT (3 h): 12.3 s
Plat (3 h): 115.3 x10_4/uL
RBC (3 h): 606.6 x10_4/ul
Ret (3 h): 10.2%
WBC (3 h): 99.6 x10_2/uL
KIDNEY_L (3 h): 0.9 g
KIDNEY_R (3 h): 0.9 g
KIDNEY_TOTAL (3 h): 1.9 g
LIVER (3 h): 9.4 g
ALP (3 h): 896.4 IU/L
ALT (3 h): 34.2 IU/L
AST (3 h): 67.2 IU/L
BUN (3 h): 13 mg/dL
CRE (3 h): 0.5 mg/dL
Ca (3 h): 10.7 mg/dL
Cl (3 h): 104.6 meq/L
DBIL (3 h): 0.012 mg/dL
GLC (3 h): 192.8 mg/dL
IP (3 h): 9 mg/dL
K (3 h): 4.5 meq/L
LDH (3 h): 114.2 IU/L
Na (3 h): 141.8 meq/L
PL (3 h): 134 mg/dL
RALB (3 h): 3.5 g/dL
TBIL (3 h): 0.3 mg/dL
TC (3 h): 75.8 mg/dL
TG (3 h): 46.4 mg/dL
TP (3 h): 5.4 g/dL
gamma-GTP (3 h): 2 IU/L
TERMINAL_BW (6 h): 198.3 g
APTT (6 h): 16.9 s
Bas (6 h): 0%
Eos (6 h): 1%
Fbg (6 h): 194.4 mg/dL
Hb (6 h): 13.6 g/dL
Ht (6 h): 40.8%
Lym (6 h): 79.8%
MCH (6 h): 21.6 pg
MCHC (6 h): 33.3%
MCV (6 h): 64.9 fL
Mono (6 h): 6.4%
Neu (6 h): 13.2%
PT (6 h): 11.8 s
Plat (6 h): 110.4 x10_4/uL
RBC (6 h): 629.6 x10_4/ul
Ret (6 h): 9.8%
WBC (6 h): 78.9 x10_2/uL
KIDNEY_L (6 h): 1 g
KIDNEY_R (6 h): 1 g
KIDNEY_TOTAL (6 h): 2 g
LIVER (6 h): 8.6 g
ALP (6 h): 862.6 IU/L
ALT (6 h): 35 IU/L
AST (6 h): 66.8 IU/L
BUN (6 h): 10.8 mg/dL
CRE (6 h): 0.6 mg/dL
Ca (6 h): 10.5 mg/dL
Cl (6 h): 104.4 meq/L
DBIL (6 h): 0.02 mg/dL
GLC (6 h): 195.4 mg/dL
IP (6 h): 10.2 mg/dL
K (6 h): 4.6 meq/L
LDH (6 h): 99.4 IU/L
Na (6 h): 142 meq/L
PL (6 h): 128 mg/dL
RALB (6 h): 3.3 g/dL
TBIL (6 h): 0.4 mg/dL
TC (6 h): 72.2 mg/dL
TG (6 h): 42.6 mg/dL
TP (6 h): 5.2 g/dL
gamma-GTP (6 h): 0.8 IU/L
TERMINAL_BW (9 h): 198.7 g
APTT (9 h): 16.8 s
Bas (9 h): 0%
Eos (9 h): 0.6%
Fbg (9 h): 184.6 mg/dL
Hb (9 h): 13.5 g/dL
Ht (9 h): 39.7%
Lym (9 h): 77%
MCH (9 h): 22.1 pg
MCHC (9 h): 33.9%
MCV (9 h): 65.1 fL
Mono (9 h): 6.8%
Neu (9 h): 15.8%
PT (9 h): 11 s
Plat (9 h): 113.8 x10_4/uL
RBC (9 h): 611 x10_4/ul
Ret (9 h): 8.6%
WBC (9 h): 75.9 x10_2/uL
KIDNEY_L (9 h): 0.9 g
KIDNEY_R (9 h): 1 g
KIDNEY_TOTAL (9 h): 1.9 g
LIVER (9 h): 8.1 g
ALP (9 h): 777.2 IU/L
ALT (9 h): 32.8 IU/L
AST (9 h): 64.6 IU/L
BUN (9 h): 10.2 mg/dL
CRE (9 h): 0.6 mg/dL
Ca (9 h): 10.6 mg/dL
Cl (9 h): 105.6 meq/L
DBIL (9 h): 0.036 mg/dL
GLC (9 h): 198.8 mg/dL
IP (9 h): 10.4 mg/dL
K (9 h): 4.6 meq/L
LDH (9 h): 74.6 IU/L
Na (9 h): 143.4 meq/L
PL (9 h): 127.2 mg/dL
RALB (9 h): 3.4 g/dL
TBIL (9 h): 0.4 mg/dL
TC (9 h): 70.8 mg/dL
TG (9 h): 35.2 mg/dL
TP (9 h): 5.3 g/dL
gamma-GTP (9 h): 1.6 IU/L
TERMINAL_BW (24 h): 209.8 g
APTT (24 h): 15.8 s
Bas (24 h): 0%
Eos (24 h): 1%
Fbg (24 h): 206.6 mg/dL
Hb (24 h): 13.3 g/dL
Ht (24 h): 39.5%
Lym (24 h): 79.2%
MCH (24 h): 21.7 pg
MCHC (24 h): 33.7%
MCV (24 h): 64.3 fL
Mono (24 h): 6.6%
Neu (24 h): 13.6%
PT (24 h): 11.6 s
Plat (24 h): 108.6 x10_4/uL
RBC (24 h): 613.8 x10_4/ul
Ret (24 h): 8.9%
WBC (24 h): 89.3 x10_2/uL
KIDNEY_L (24 h): 1 g
KIDNEY_R (24 h): 1 g
KIDNEY_TOTAL (24 h): 2 g
LIVER (24 h): 10.2 g
ALP (24 h): 1017 IU/L
ALT (24 h): 33 IU/L
AST (24 h): 68 IU/L
CRE (24 h): 0.6 mg/dL
Ca (24 h): 11.1 mg/dL
Cl (24 h): 104.6 meq/L
DBIL (24 h): 0.012 mg/dL
GLC (24 h): 200.6 mg/dL
IP (24 h): 8.1 mg/dL
K (24 h): 4.6 meq/L
LDH (24 h): 109.6 IU/L
Na (24 h): 141.6 meq/L
PL (24 h): 155.2 mg/dL
RALB (24 h): 3.5 g/dL
TBIL (24 h): 0.3 mg/dL
TC (24 h): 87.8 mg/dL
TG (24 h): 82.6 mg/dL
TP (24 h): 5.5 g/dL
gamma-GTP (24 h): 1.4 IU/L
